From US8247401B2, “P2X3 receptor antagonists for treatment of pain” (Merck Sharp & Dohme Corp., priority 2007, dated 2012) come the findings set out here.

Molecules are shown by their SMILES.

The target of the test is T1, human P2X3 (Homo sapiens, UniProt P56373).
T1 construct: expressed in transfected cells
T1 sequence (P56373 1-397): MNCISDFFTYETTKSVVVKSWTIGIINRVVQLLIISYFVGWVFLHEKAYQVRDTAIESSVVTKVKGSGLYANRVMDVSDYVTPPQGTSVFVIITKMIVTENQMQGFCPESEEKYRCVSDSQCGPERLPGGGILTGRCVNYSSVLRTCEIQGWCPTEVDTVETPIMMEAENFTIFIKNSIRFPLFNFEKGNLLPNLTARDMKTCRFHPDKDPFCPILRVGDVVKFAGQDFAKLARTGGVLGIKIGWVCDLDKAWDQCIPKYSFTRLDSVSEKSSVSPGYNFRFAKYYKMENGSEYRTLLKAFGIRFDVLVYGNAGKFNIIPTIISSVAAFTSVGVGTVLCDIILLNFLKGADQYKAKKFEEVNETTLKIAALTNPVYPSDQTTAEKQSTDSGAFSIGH
Put plainly: Intracellular Calcium Measurement to Assess Antagonist Affinity (FLIPR, Fluo-4). Type of test: cell-based. Particulars: Intracellular Calcium Measurement assay; agonist α,β-meATP at EC50. The text has this:
Generation of a Human P2X3 and P2X2/3 Stable Cell Line—Human P2X3 receptor cDNA (Accession number NM_002559) was subcloned as a 5′XhoI and 3′HindIII fragment into the expression vector pcDNA5/FRT (Invitrogen). Human P2X2 receptor cDNA (Accession number NM_174873) was subcloned as a 5′EcoRI and 3′NotI fragment into the expression vector pIRESneo2 (BD Biosciences Clontech). The human P2X3 expression construct was transfected using Lipofectamine 2000 (Invitrogen) into Flp-in—293 cells (Invitrogen) according to the manufacturer's directions. Cells positive for flp-mediated recombination of […] P2X3 were selected using 150 μg/ml hygromycin. The stable human P2X3 cell line was co-transfected with the human P2X2 expression construct using Lipofectamine 2000 as above and co-transfected cells selected using […] hygromycin and 1 mg/ml G418. The stable P2X3 cell line was propagated in DMEM, 10% FBS, 100 μg/ml hygromycin, and 100 units/ml penicillin and 100 μg/ml streptomycin, and maintained at 37° and 95% humidity. The stable P2X2/3 cell line was propagated as above with the addition of 500 μg/ml G418.
Intracellular Calcium Measurement to Assess Antagonist Affinity—A fluorescent imaging plate reader (FLIPR; Molecular Devices) was used to monitor intracellular calcium levels using the calcium-chelating dye Fluo-4 (Molecular Probes). The excitation and emission wavelengths used to monitor fluorescence were 488 nm and 530 nm, respectively. Cells expressing either human P2X3 or human P2X2/3 were plated at a density of 20,000 cells/well (20 μl/well) in 384-well black-walled plates approximately 20 hours before beginning the assay. On the day of the assay 20 μl of loading buffer (Hank's balanced salt solution, 2.5 mM CaCl2, 20 mM HEPES, 0.1% BSA, 2.5 mM probenecid, TR-40, Fluo-4, and 138 mM NMDG substituted for NaCl) is added and cells dye-loaded for 60 min in the dark at room temperature. Ten minutes prior to adding agonist, the antagonist was added in a volume of 10 μl and allowed to incubate at room temperature. During this period fluorescence data is collected at 3 sec intervals followed by 10 sec intervals. The agonist, α,β-meATP, is added at a 6× concentration ([α,β-meATP]final=EC50). Following agonist addition fluorescence was measured at 5 sec intervals and analyzed based on the increase in peak relative fluorescence units (RFU) compared to the basal fluorescence. Peak fluorescence was used to determine the inhibitory effect at each concentration of antagonist by the following equation: % Inhibition=100*(1−((RFU(drug)−RFU(control))/(RFU(DMSO only)−RFU(control)))) In vitro Electrophysiological Assay—Cells expressing human P2X3 receptors were grown to a confluence of 65-85% 20 to 32 hours prior to assay. […]
Turning to `Cc1ccc(-c2cc(C(=O)NC(C)c3nnc[nH]3)cc(N3CCOCC3)c2)c(F)c1` (stereo in doubt) [Example 4.109, 2′-Fluoro-4′-methyl-5-morpholin-4-yl-N-[(1R)-1-(1H-1,2,4-triazol-3-yl)ethyl]biphenyl-3-carboxamide], the IC50 was determined as 20 nM. The same measure for `Cc1ccc(-c2cc(C(=O)N[C@H](C)c3ncc(F)cc3F)cc(-c3nnc(C4CC4)n3C)c2)nc1` [Example 4.3]: 11 nM; for `Cc1ccc(-c2cc(C(=O)N[C@H](C)c3ccc(F)cn3)cc(-c3ncccc3F)c2)nc1` [Example 4.252, 3-(3-Fluoropyridin-2-yl)-N-[(1R)-1-(5-fluoropyridin-2-yl)ethyl]-5-(5-methylpyridin-2-yl)benzamide]: 8 nM; for `C[C@@H](NC(=O)c1cc(-c2ccc(Cl)cn2)cc(C(C)(C)O)c1)c1ccc(C(F)(F)F)[n+]([O-])c1` [Example 4.539, 3-(5-Chloropyridin-2-yl)-5-(1-hydroxy-1-methylethyl)-N-{(1R)-1-[1-oxido-6-(trifluoromethyl)pyridin-3-yl]-ethyl}benzamide]: 26 nM.
